The values below are quoted from earlier work in US20060062074A1, “Method for intracellular modifications within living cells using pulsed electric fields” (priority 2001, published 2006).

This data set deals with a variety of cell lines. To be noted: 0.0075% Triton X-100; positive control; literature (Borner et al. 1994).

On to Triton X-100, for which the induction of apoptosis entry was “induce apoptosis”.
